{"source": "paper PMC5400620", "about": "“Preclinical therapeutic efficacy of a novel blood-brain barrier-penetrant dual PI3K/mTOR inhibitor with preferential response in PI3K/PTEN mutant glioma” (Oncotarget, 2017)", "key": {"U87 glioma cells": {"tested_on": "U87 glioma cells", "test": "U87 orthotopic intracranial xenograft efficacy", "type": "in vivo", "description": "Figure 4 DS7423 suppressed tumor growth and prolonged survival in an orthotopic mouse xenograft model U87 glioma cells U87 and GSC11 GICs were used to generate orthotopic xenografts in mouse brains. Tumor-bearing mice received either vehicle or DS7423 at the indicated dose/schedules. Two mice were killed at the indicated time points (2 weeks and 4 weeks) after DS treatment. A. and B. Kaplan–Meier survival plots of tumor-bearing mice in vehicle or DS7423 treatment groups (n = 10). The log-rank method was used to test for a difference between groups. […] Bar, 100 μm.\n6 to 8-week-old male nude mice were obtained from the MD Anderson breeding facility and used in accordance with the Animal Care and Use Guidelines of MD Anderson Cancer Center. In this study, 5 × 10^5 U87 (PTEN mutant) cells in DMEM/F12 serum-free media (5 μL) and GSC11 (PIK3CA mutant and PTEN mutant) were implanted intracranially into each mouse using a guide-screw system, as described previously. Four days after injection of the tumor cells, mice were randomized into 2 groups (10 animals per group). Mice in-group 1 was given 6 mg/kg DS7423 via oral gavage, and mice in-group 2 were given the vehicle (0.5% methyl cellulose) used for administration of DS (control). […] Mice were monitored daily and euthanized when they became moribund. […]"}, "[1]": {"molecular_target": "T1, never-in-mitosis gene a (NIMA)-related kinase 2 (NEK2) (Homo sapiens, UniProt P51955)", "T1 sequence (P51955 1-445)": "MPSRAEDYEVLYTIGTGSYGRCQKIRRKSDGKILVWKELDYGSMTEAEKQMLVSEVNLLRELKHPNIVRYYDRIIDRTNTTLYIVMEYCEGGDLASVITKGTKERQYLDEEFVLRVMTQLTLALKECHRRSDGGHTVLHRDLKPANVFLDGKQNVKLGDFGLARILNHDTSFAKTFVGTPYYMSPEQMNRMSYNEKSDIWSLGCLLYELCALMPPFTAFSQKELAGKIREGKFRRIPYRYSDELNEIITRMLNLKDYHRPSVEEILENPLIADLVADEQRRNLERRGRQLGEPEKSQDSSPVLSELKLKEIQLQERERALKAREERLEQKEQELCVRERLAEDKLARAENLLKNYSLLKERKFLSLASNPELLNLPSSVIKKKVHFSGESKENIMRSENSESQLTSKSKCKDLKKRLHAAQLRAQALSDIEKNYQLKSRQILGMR", "test": "kinase panel, direct measurement of substrate phosphorylation, NEK2", "type": "biochemical", "settings": "panel of 227 kinases; test concentration not given", "experimental": "DS7423 inhibits PI3K/mTOR activity likely binding to the ATP binding cleft of these enzymes and was tested against class I PI3K and other kinases using an HTRF assay format and direct measurement of substrate phosphorylation, respectively."}}, "data": [{"smiles": "CC(=O)N1CCN(c2nc3c(N4CCOCC4)nc(-c4cnc(N)nc4)nc3n2CC(F)(F)F)C[C@H]1C", "note": "[DS, 1-{(2R)-4-[2-(2-Aminopyrimidin-5-yl)-6-(morpholin-4-yl)-9-(2,2,2-trifluoroethyl)-9H-purin-8-yl]-2-methylpiperazin-1-yl}ethan-1-one]", "values": [{"measurement": "median survival time", "setting": "U87 glioma cells; U87 tumor-bearing mice, 6 mg/kg oral, control 30 days, P=0.025", "value": 46, "unit": "days"}, {"measurement": "toxic effects in mice with intracranial xenograft tumors", "setting": "U87 glioma cells; treated mice", "value": "without causing any obvious toxic effects"}, {"measurement": "inhibition of NEK2", "setting": "[1]", "value": "greater than 50%"}]}]}
